Measured values: patent US20220144839A1, “INDOLE AHR INHIBITORS AND USES THEREOF” (Ikena Oncology, Inc., priority 2018, published 2022)

Target: T1, AHR (UniProt P35869)
T1 sequence (P35869 1-848): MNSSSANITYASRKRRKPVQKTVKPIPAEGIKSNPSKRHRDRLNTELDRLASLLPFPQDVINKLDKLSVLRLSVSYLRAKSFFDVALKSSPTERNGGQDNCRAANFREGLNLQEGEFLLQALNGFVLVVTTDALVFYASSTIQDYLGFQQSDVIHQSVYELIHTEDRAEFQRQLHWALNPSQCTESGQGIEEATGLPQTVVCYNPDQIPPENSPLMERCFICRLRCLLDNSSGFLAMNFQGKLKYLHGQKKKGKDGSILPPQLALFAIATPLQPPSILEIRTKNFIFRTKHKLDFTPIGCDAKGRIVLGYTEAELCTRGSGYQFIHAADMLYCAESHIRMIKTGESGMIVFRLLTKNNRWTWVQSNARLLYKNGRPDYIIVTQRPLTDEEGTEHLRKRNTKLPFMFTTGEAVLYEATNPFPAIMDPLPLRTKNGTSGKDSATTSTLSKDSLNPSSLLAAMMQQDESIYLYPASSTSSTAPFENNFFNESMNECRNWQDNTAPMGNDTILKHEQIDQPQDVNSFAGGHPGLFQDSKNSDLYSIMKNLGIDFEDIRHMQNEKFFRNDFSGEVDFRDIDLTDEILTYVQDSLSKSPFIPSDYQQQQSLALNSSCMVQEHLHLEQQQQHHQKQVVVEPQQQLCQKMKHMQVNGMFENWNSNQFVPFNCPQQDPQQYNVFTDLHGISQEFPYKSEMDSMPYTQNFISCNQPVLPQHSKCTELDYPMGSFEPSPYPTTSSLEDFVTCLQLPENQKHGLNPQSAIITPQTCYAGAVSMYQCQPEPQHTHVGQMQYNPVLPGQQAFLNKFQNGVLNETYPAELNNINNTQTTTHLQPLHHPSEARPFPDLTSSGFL
Test: DRE-Luciferase Reporter Assay (Alternate Method), Example 1B
Type: cell-based
Details: concentration which inhibits half of the luciferase activity induced by AHR activating ligand; DRE-luciferase reporter cell line
Method: AHR binds to Dioxin Responsive Elements (DRE) upstream of genes that it activates. One measure of AHR activity is activation of a reporter gene, such as luciferase, downstream of one or multiple DRE elements. Luciferase activity will reflect activation and inhibition of AHR in the cells expressing his reporter.
Murine Hepa1-6 or Hepa-1c1c7 or other murine cell line with a DRE-luciferase reporter either stably or transiently transfected were plated in media in plates (96-well, 384-well or other plates) and incubated overnight at 37° C. in a C02 incubator or compound and agonist were added at the time of plating. Likewise, human HepG2 or other human cell line with a DRE-luciferase reporter either stably or transiently transfected were plated in media in plates (96-well, 384-well or other plates) and incubated overnight at 37° C. in a C02 incubator or compound and agonist were added at the time of plating.
At the time that cells are plated or following incubation overnight, an AHR activating ligand, such as TCDD, kynurenine, ITE (2-(1H-indole-3-ylcarbonyl)-4-thiazolecarboxylic methyl ester), VAF347, BNF (beta-naphthoflavone), FICZ (6-formylindolo(3,2-b) carbazole or other AHR ligands, was added with or without AHR antagonist.
Cells were incubated for 4, 15 or 24 hours or another time point and then lysed for determination of luciferase activity as a read-out of the AHR activation or inhibition. Luciferase was measured with a commercial kit such as the Promega Luciferase kit or any kit or reagents that provide the luciferin substrate for measuring luciferase activity. The level of luciferase with only activating ligand added was the maximum signal while the luciferase with no ligand was the minimum signal. IC50 values were determined as the concentration which inhibits half of the luciferase activity.

SMILES	IC50 [µM]
CC(C)c1cnn2c(N[C@@H]3CCc4[nH]c5ccccc5c4C3)nc(-c3ccn(C)c(=O)c3)nc12 [Compound I-1, 4-[8-Isopropyl-4-[[(3R)-2,3,4,9-tetrahydro-1H-carbazol-3-yl]amino]pyrazolo[1,5-a][1,3,5]triazin-2-yl]-1-methyl-pyridin-2-one]	> 1.5
CC(C)c1cnn2c(N[C@H]3CCc4[nH]c5cccc(O)c5c4C3)nc(-c3cncc(F)c3)nc12 [Compound I-29a, (6S)-6-[[2-(5-Fluoro-3-pyridyl)-8-isopropyl-pyrazolo[1,5-a][1,3,5]triazin-4-yl]amino]-6,7,8,9-tetrahydro-5H-carbazol-4-ol]	> 1.5
CC(C)c1cnn2c(N[C@@H]3CCc4[nH]c5ccccc5c4C3)nc(-n3cncn3)nc12 [Compound I-16, (3R)—N-[8-Isopropyl-2-(1,2,4-triazol-1-yl)pyrazolo[1,5-a][1,3,5]triazin-4-yl]-2,3,4,9-tetrahydro-1H-carbazol-3-amine]	> 1.5
CC(C)c1cnn2c(N[C@H]3CNc4ccccc4C3)nc(-c3cncc(F)c3)nc12 [Compound I-35b, (R)—N-(2-(5-Fluoropyridin-3-yl)-8-isopropylpyrazolo[1,5-a][1,3,5]triazin-4-yl)-1,2,3,4-tetrahydroquinolin-3-amine]	0.5 to 1
C[C@@H](NC(=O)N1CCOCC1)c1cnn2c(N[C@@H]3CCc4[nH]c5ccccc5c4C3)nc(-c3cncc(F)c3)nc12 [Compound I-56b, N-[(1R)-1-[2-(5-Fluoro-3-pyridyl)-4-[[(3R)-2,3,4,9-tetrahydro-1H-carbazol-3-yl]amino]pyrazolo[1,5-a][1,3,5]triazin-8-yl]ethyl]morpholine-4-carboxamide]	< 0.5
CN1CCN(c2cnn3c(N[C@@H]4CCc5[nH]c6ccccc6c5C4)nc(-c4cncc(F)c4)nc23)CC1 [Compound I-52, (3R)—N-[2-(5-Fluoro-3-pyridyl)-8-(4-methylpiperazin-1-yl)pyrazolo[1,5-a][1,3,5]triazin-4-yl]-2,3,4,9-tetrahydro-1H-carbazol-3-amine]	0.5 to 1
Cc1nccn1-c1nc(N[C@@H]2CCc3[nH]c4ccccc4c3C2)n2ncc(C(C)C)c2n1 [Compound I-19, (3R)—N-[8-Isopropyl-2-(2-methylimidazol-1-yl)pyrazolo[1,5-a][1,3,5]triazin-4-yl]-2,3,4,9-tetrahydro-1H-carbazol-3-amine]	> 1.5
CC(CO)CNc1nc(-c2cncc(F)c2)nc2c(C(C)C)cnn12 (centres unmarked) [Compound I-49, 3-[[2-(5-Fluoro-3-pyridyl)-8-isopropyl-pyrazolo[1,5-a][1,3,5]triazin-4-yl]amino]-2-methyl-propan-1-ol]	> 1.5
CC(C)c1cnn2c(N[C@@H]3CCc4ccccc4C3)nc(-c3cncc(F)c3)nc12 [Compound I-48a, 2-(5-Fluoro-3-pyridyl)-8-isopropyl-N-[(2R)-tetralin-2-yl]pyrazolo[1,5-a][1,3,5]triazin-4-amine]	> 1.5
CC(C)c1cnn2c(N[C@H]3CCc4c(ccnc4N)C3)nc(-c3cncc(F)c3)nc12 [Compound I-63b, (6S)—N6-[2-(5-fluoro-3-pyridyl)-8-isopropyl-pyrazolo[1,5-a][1,3,5]triazin-4-yl]-5,6,7,8-tetrahydroisoquinoline-1,6-diamine]	> 1.5
CC(C)c1cnn2c(N[C@@H]3CCc4[nH]c5cc(O)ccc5c4C3)nc(-c3cncc(F)c3)nc12 [Compound I-27a, (6R)-6-[[2-(5-Fluoro-3-pyridyl)-8-isopropyl-pyrazolo[1,5-a][1,3,5]triazin-4-yl]amino]-6,7,8,9-tetrahydro-5H-carbazol-2-ol]	> 1.5
CC(C)c1cnn2c(N[C@@H]3CCc4[nH]c5ccccc5c4C3)nc(-c3cncc(N(C)C)c3)nc12 [Compound I-5, (3R)—N-[2-[5-(Dimethylamino)-3-pyridyl]-8-isopropyl-pyrazolo[1,5-a][1,3,5]triazin-4-yl]-2,3,4,9-tetrahydro-1H-carbazol-3-amine]	> 1.5
CC(C)c1cnn2c(N[C@H]3CC[C@H](O)CC3)nc(-c3cncc(F)c3)nc12 [Compound I-44a, 4-[[2-(5-Fluoro-3-pyridyl)-8-isopropyl-pyrazolo[1,5-a][1,3,5]triazin-4-yl]amino]cyclohexanol]	> 1.5
CC(C)c1cnn2c(NCCc3cccnc3N)nc(-c3cncc(F)c3)nc12 [Compound I-58, N-[2-(2-Amino-3-pyridyl)ethyl]-2-(5-fluoro-3-pyridyl)-8-isopropyl-pyrazolo[1,5-a][1,3,5]triazin-4-amine]	< 0.5
CC(C)c1cnn2c(NCCCCO)nc(-c3cnsc3)nc12 [Compound I-54, 4-[(8-Isopropyl-2-isothiazol-4-yl-pyrazolo[1,5-a][1,3,5]triazin-4-yl)amino]butan-1-ol]	> 1.5
CC(C)c1cnn2c(N[C@@H]3CCc4[nH]c5ccccc5c4C3)nc(-c3ccc(N(C)C)nc3)nc12 [Compound I-6, (3R)—N-[2-[6-(dimethylamino)-3-pyridyl]-8-isopropyl-pyrazolo[1,5-a][1,3,5]triazin-4-yl]-2,3,4,9-tetrahydro-1H-carbazol-3-amine]	> 1.5
CC(C)c1cnn2c(N[C@@H]3CCc4[nH]c5ccc(O)cc5c4C3)nc(-c3cncc(F)c3)nc12 [Compound I-34b, (6R)-6-[[2-(5-Fluoro-3-pyridyl)-8-isopropyl-pyrazolo[1,5-a][1,3,5]triazin-4-yl]amino]-6,7,8,9-tetrahydro-5H-carbazol-3-ol]	> 1.5
COCC[C@H](C)c1cnn2c(N[C@@H]3CCc4[nH]c5ccccc5c4C3)nc(-c3cncc(F)c3)nc12 [Compound I-65a, (3R)—N-[2-(5-Fluoro-3-pyridyl)-8-[(1S)-3-methoxy-1-methyl-propyl]pyrazolo[1,5-a][1,3,5]triazin-4-yl]-2,3,4,9-tetrahydro-1H-carbazol-3-amine]	< 0.5
C[C@@H](N)c1cnn2c(N[C@@H]3CCc4[nH]c5ccccc5c4C3)nc(-c3cncc(F)c3)nc12 [Compound I-32b, (3R)—N-[8-[(1R)-1-aminoethyl]-2-(5-fluoro-3-pyridyl)pyrazolo[1,5-a][1,3,5]triazin-4-yl]-2,3,4,9-tetrahydro-1H-carbazol-3-amine]	< 0.5
CC(C)c1cnn2c(N[C@H]3CNc4ncccc4C3)nc(-c3cncc(F)c3)nc12 [Compound I-37b, (3R)—N-[2-(5-Fluoro-3-pyridyl)-8-isopropyl-pyrazolo[1,5-a][1,3,5]triazin-4-yl]-1,2,3,4-tetrahydro-1,8-naphthyridin-3-amine]	< 0.5
CC(C)c1cnn2c(N[C@H]3CNc4ncncc4C3)nc(-c3cncc(F)c3)nc12 [Compound I-60a, (6R)—N-[2-(5-Fluoro-3-pyridyl)-8-isopropyl-pyrazolo[1,5-a][1,3,5]triazin-4-yl]-5,6,7,8-tetrahydropyrido[2,3-d]pyrimidin-6-amine]	> 1.5
Fc1cc(-c2nc(N[C@@H]3CCc4[nH]c5ccccc5c4C3)n3nccc3n2)cnc1[C@H]1CCCN1 [Compound I-26b, (3R)—N-[2-[5-Fluoro-6-[(2R)-pyrrolidin-2-yl]-3-pyridyl]pyrazolo[1,5-a][1,3,5]triazin-4-yl]-2,3,4,9-tetrahydro-1H-carbazol-3-amine]	> 1.5
CC(C)c1cnn2c(N[C@@H]3CNc4ncccc4C3)nc(-c3cncc(F)c3)nc12 [Compound I-37a, (3S)—N-[2-(5-Fluoro-3-pyridyl)-8-isopropyl-pyrazolo[1,5-a][1,3,5]triazin-4-yl]-1,2,3,4-tetrahydro-1,8-naphthyridin-3-amine]	0.5 to 1
